In patent publication US20200352934A1, “LOW-TEMPERATURE STABLE OPIOID ANTAGONIST SOLUTIONS” (priority 2017, published 2020):
Read-outs that look alike come from different tables or passages of the source.

Conditions: storage at 4° C.
[1] = per 100 mL: EDTA-Na2 0 mg, PG 5% w/v
[2] = per 100 mL: EDTA-Na2 0 mg, PG 10% w/v
[3] = per 100 mL: EDTA-Na2 0 mg, PG 20% w/v
[4] = per 100 mL: EDTA-Na2 100 mg, PG 5% w/v
[5] = per 100 mL: EDTA-Na2 100 mg, PG 10% w/v
[6] = per 100 mL: EDTA-Na2 100 mg, PG 20% w/v

C=CCN1CC[C@]23c4c5ccc(O)c4O[C@H]2C(=O)CC[C@@]3(O)[C@H]1C5 [Naloxone]
No: Observed naloxone precipitation 24 days [1] | Observed naloxone precipitation 24 days [2] | Observed naloxone precipitation 24 days [3] | Observed naloxone precipitation 24 days [4] | Observed naloxone precipitation 24 days [5] | Observed naloxone precipitation 35 days [1] | Observed naloxone precipitation 35 days [2] | Observed naloxone precipitation 35 days [3] | Observed naloxone precipitation 35 days [4] | Observed naloxone precipitation 35 days [5] | Observed naloxone precipitation 53 days [1] | Observed naloxone precipitation 53 days [2] | Observed naloxone precipitation 53 days [3] | Observed naloxone precipitation 53 days [4]
No and Yes: Observed naloxone precipitation 35 days [6] | Observed naloxone precipitation 53 days [6]
No and Slight: Observed naloxone precipitation 24 days [6] | Observed naloxone precipitation 53 days [5]
